Reference: PubChem BioAssay (NCI)
Several values for one entry are separate records, joined by “and”; a condition that tells them apart may be missing. Equal values may be shown once.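 How tested: cells in 96-well plates exposed to compound for 48 hours at five concentrations. GI50 marks 50% less growth. TGI denotes the concentration required for complete inhibition of growth.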

Legend:
Experiment in all cases: DTP human tumour cell line panel, 48 h
NCI/ADR-RES ovarian = system: NCI/ADR-RES ovarian
MCF7 breast = system: MCF7 breast
A549 NSCLC = system: A549 NSCLC
DU-145 prostate = system: DU-145 prostate
T-47D breast = system: T-47D breast
HL-60(TB) leukemia = system: HL-60(TB) leukemia
MDA-N = system: MDA-N
SK-MEL-28 melanoma = system: SK-MEL-28 melanoma
NCI-H522 lung = system: NCI-H522 lung
UO-31 renal = system: UO-31 renal
MOLT-4 leukemia = system: MOLT-4 leukemia
SNB-19 CNS = system: SNB-19 CNS
HS 578T breast = system: HS 578T breast
SK-MEL-2 melanoma = system: SK-MEL-2 melanoma

Row | Compound | TGI (NCI/ADR-RES ovarian) | TGI (MCF7 breast) | TGI (A549 NSCLC) | TGI (DU-145 prostate) | TGI (T-47D breast) | TGI (HL-60(TB) leukemia) | TGI (MDA-N) [µM] | TGI (SK-MEL-28 melanoma) | TGI (NCI-H522 lung) | TGI (UO-31 renal) | TGI (MOLT-4 leukemia) | TGI (SNB-19 CNS) | TGI (HS 578T breast) | TGI (SK-MEL-2 melanoma) | GI50 (NCI/ADR-RES ovarian) [µM] | GI50 (MCF7 breast) [µM] | GI50 (DU-145 prostate) | GI50 (T-47D breast) | GI50 (HL-60(TB) leukemia) | GI50 (UO-31 renal)
1 | O=c1oc2ccccc2cc1-c1nnc(-c2ccccc2)s1 | > 67.2 µM | > 100 µM | > 100 µM | > 100 µM | > 85.2 µM | 3.5 µM | > 78.1 | > 100 µM | > 100 µM | > 100 µM | > 100 µM | > 84.7 µM | > 100 µM | > 100 µM | – | – | – | – | – | –
2 | O=C1SC(c2ccc(Cl)cc2)(c2ccc(Cl)cc2)c2ccccc21 | > 100 µM | > 100 µM | > 100 µM | > 100 µM | > 100 µM | 96.6 µM | > 100 | > 100 µM | > 100 µM | > 100 µM | > 100 µM | > 100 µM | > 100 µM | 77.5 µM | – | – | – | – | – | –
3 | COc1cc(/C=C2/SC(c3ccccc3)N(c3ccc(Cl)cc3)C2=O)cc(OC)c1OC (configuration not stated) | > 100 µM | > 100 µM | > 100 µM | > 100 µM | > 100 µM | > 100 µM | 31.8 | > 100 µM | > 100 µM | > 100 µM | > 100 µM | > 100 µM | > 100 µM | > 100 µM | – | – | – | – | – | –
4 | COC1C=C(NCC2(CO)CCC2)NC(N)=N1 (configuration not stated) | > 100 µM | > 100 µM | > 100 µM | > 100 µM | > 100 µM | > 100 µM | > 100 | > 100 µM | > 100 µM | > 100 µM | > 100 µM | > 100 µM | > 100 µM | > 100 µM | – | – | – | – | – | –
5 | CCCCCC(=O)OCC(=O)[C@H]1[C@H](C)C[C@H]2[C@@H]3C[C@H](F)C4=C/C(=N/OC(=O)c5cccc6c(=O)c7ccccc7[nH]c56)C=C[C@]4(C)[C@H]3[C@@H](O)C[C@@]21C | 41.1 µM | 54.9 µM | > 100 µM | > 100 µM | 62.1 µM | > 100 µM | 76.8 | – | 46 µM | 50 µM | > 100 µM | > 100 µM | > 100 µM | 76.8 µM | – | – | – | – | – | –
6 | Cn1cc2c(=O)n3ncn(-c4ccc(Br)cc4)c3nc2n1 | > 100 µM | > 100 µM | > 100 µM | > 100 µM | > 100 µM | > 100 µM | > 100 | > 100 µM | > 100 µM | > 100 µM | > 100 µM | > 100 µM | > 100 µM | > 100 µM | – | – | – | – | – | –
7 | Nc1nc(Cl)cc(NCC2(CO)CCC2)n1 | > 100 µM | > 100 µM | > 100 µM | > 100 µM | > 100 µM | > 100 µM | > 100 | > 100 µM | > 100 µM | > 100 µM | > 100 µM | > 100 µM | > 100 µM | > 100 µM | – | – | – | – | – | –
8 | Cc1[nH]n(-c2nc3c(c(=O)[nH]2)CCC3)c(=O)c1CCO | > 100 µM | > 100 µM | > 100 µM | > 100 µM | > 100 µM | > 100 µM | > 100 | > 100 µM | > 100 µM | > 100 µM | > 100 µM | > 100 µM | > 100 µM | > 100 µM | – | – | – | – | – | –
9 | O=[N+]([O-])/C(Cl)=C(\Nc1ccccc1)C(Cl)=C(Cl)Cl | 38.5 µM | 60.4 µM | 95 µM | > 100 µM | > 100 µM | 40.1 µM | > 100 | > 100 µM | > 100 µM | > 100 µM | > 100 µM | > 100 µM | 69.6 µM | 91.6 µM | – | – | – | – | – | –
10 | CC(C)C[C@H](NC(=O)CCc1ccccc1)B(O)O | 49.2 µM | > 100 µM | > 100 µM | > 100 µM | 43.9 µM | 8.8 µM | 7.27 | 32.4 µM | 31.1 µM | 60.1 µM | 11.4 µM | > 100 µM | 29.6 µM | 39.4 µM | – | – | – | – | – | –
11 | CC1(C)CCCCCCCCCC(C)(CCCO)C1=O (configuration not stated) | 30.5 µM | 31.1 µM | 28.8 µM | 31 µM | 29.3 µM | 45 µM | 30 | 34.2 µM | 29.7 µM | 24.4 µM | 41.9 µM | 31.9 µM | 37.9 µM | 28.9 µM | – | – | – | – | – | –
12 | COc1ccc2c(c1)N(C(C)=O)CN1C(=O)CCC21 (configuration not stated) | > 100 µM | > 100 µM | > 100 µM | > 100 µM | > 100 µM | > 100 µM | > 100 | > 100 µM | > 100 µM | > 100 µM | > 100 µM | > 100 µM | > 100 µM | > 100 µM | – | – | – | – | – | –
13 | CN(C)c1ncnc2c1ncn2C1C=CC(COS(N)(=O)=O)C1 (configuration not stated) | > 100 µM | > 100 µM | > 100 µM | > 100 µM | > 100 µM | > 100 µM | > 100 | > 100 µM | > 100 µM | > 100 µM | > 100 µM | > 100 µM | > 100 µM | > 100 µM | – | – | – | – | – | –
14 | Cc1ccc(S(=O)(=O)[N-]C2C(=O)c3ccccc3C(=O)C2[n+]2cccc(C(N)=O)c2)cc1 (configuration not stated) | > 100 µM | > 100 µM | > 100 µM | > 100 µM | > 100 µM | > 100 µM | > 100 | > 100 µM | > 100 µM | > 100 µM | > 100 µM | > 100 µM | > 100 µM | > 100 µM | – | – | – | – | – | –
15 | COc1ccc2nc3cc([N+](=O)[O-])ccc3c(NNc3ccc(Cl)cc3)c2c1 | > 100 µM | > 100 µM | > 85 µM | > 96.5 µM | > 100 µM | > 73.8 µM | > 100 | > 100 µM | 83.7 µM | > 100 µM | > 92.4 µM | > 100 µM | > 100 µM | 59.4 µM | – | – | – | – | – | –
16 | COC(=O)/C(C#N)=C1\NC(=O)CC(c2ccccc2)C1C#N (configuration not stated) | > 100 µM | > 100 µM | > 100 µM | > 100 µM | > 100 µM | > 100 µM | > 100 | > 100 µM | > 100 µM | > 100 µM | > 100 µM | > 100 µM | > 100 µM | > 100 µM | – | – | – | – | – | –
17 | CC1=CC2(O)OC3(CC2=C(C)C)C(C)CCC13 (configuration not stated) | > 100 µM | > 100 µM | > 100 µM | > 100 µM | > 100 µM | > 100 µM | > 100 | – | > 100 µM | > 100 µM | > 100 µM | > 100 µM | > 100 µM | > 100 µM | – | – | – | – | – | –
18 | CC(=O)NCC1(c2ccccc2)CCN(CC2COc3ccccc3O2)CC1 (configuration not stated) | > 100 µM | > 100 µM | > 100 µM | > 100 µM | > 100 µM | > 100 µM | > 100 | > 100 µM | > 100 µM | > 100 µM | > 100 µM | > 100 µM | > 100 µM | > 100 µM | – | – | – | – | – | –
19 | CCC(CC)C(=O)OC[n+]1cccc(-c2c(COC(=O)NC(C)C)c(COC(=O)NC(C)C)c3n2CCC3)c1 | > 100 µM | > 100 µM | > 100 µM | > 100 µM | > 100 µM | > 100 µM | > 100 | > 100 µM | > 100 µM | > 100 µM | > 100 µM | > 100 µM | > 100 µM | > 100 µM | – | – | – | – | – | –
20 | CCCCSC1=N/C(=C\c2ccco2)C(=O)N1 | > 100 µM | > 100 µM | > 100 µM | > 100 µM | > 100 µM | > 100 µM | > 100 | > 100 µM | > 100 µM | > 100 µM | > 100 µM | > 100 µM | 88.3 µM | > 100 µM | – | – | – | – | – | –
21 | CN(C)CCOC1(Cc2ccc(Cl)cc2Cl)CCC(C(C)(C)C)CC1 (configuration not stated) | 4.52 µM and 3.12 µM | 3.49 µM and 3.65 µM | 5.85 µM and 4.22 µM | 5.91 µM and 6.45 µM | 4.42 µM and 4.24 µM | 3.61 µM and 3.92 µM | 3.31 | 3.2 µM and 2.83 µM | 3.44 µM and 3.85 µM | 6.27 µM and 2.83 µM | 4.72 µM and 4.23 µM | 3.44 µM and 3.74 µM | 5.2 µM and 5.27 µM | 3.89 µM and 3.33 µM | 1.99 | 1.79 | 1.89 µM and 2.68 µM | 1.92 µM and 2.09 µM | 1.45 µM and 2.08 µM | 2.17 µM and 1.45 µM
22 | CC1(C)OC(=O)C(C)(C)OC1=O | > 100 µM | > 100 µM | > 100 µM | > 100 µM | > 100 µM | > 100 µM | > 100 | > 100 µM | > 100 µM | > 100 µM | > 100 µM | > 100 µM | > 100 µM | > 100 µM | – | – | – | – | – | –
23 | CC(NC(=O)/C(C#N)=C/c1ccc2[nH]ccc2c1)c1ccccc1 (configuration not stated) | > 100 µM | 56 µM | 55.4 µM | 39.8 µM | 51 µM | 54.8 µM | 31.4 | 36.9 µM | 25.7 µM | 28.3 µM | 52.3 µM | 45.1 µM | 66.4 µM | 39.9 µM | – | – | – | – | – | –
24 | CN1CC2=C(NC(=S)NC2c2ccc(Cl)cc2)/C(=C/c2ccc(Cl)cc2)C1 (configuration not stated) | 43.6 µM | 68.4 µM | 45.1 µM | 30.5 µM | 32.3 µM | 48 µM | 34.9 | 33.9 µM | 31 µM | > 100 µM | 30.2 µM | – | 40.3 µM | 30.2 µM | – | – | – | – | – | –
25 | Cc1cnc2[nH]c(-c3ccc(F)cc3)cc(=O)c2c1 | > 87.5 µM | > 100 µM | > 100 µM | > 100 µM | > 100 µM | 20.4 µM | 8.87 | > 100 µM | 50.4 µM | > 100 µM | > 91.5 µM | > 100 µM | > 100 µM | > 82.1 µM | – | – | – | – | – | –
26 | CN(C)c1ccc(/C=C2\N=C(N/N=C/c3ccccc3)NC2=O)cc1 | > 100 µM | > 100 µM | > 100 µM | > 100 µM | > 100 µM | > 100 µM | > 100 | > 100 µM | > 100 µM | > 100 µM | > 100 µM | > 100 µM | > 100 µM | > 100 µM | – | – | – | – | – | –
